Measured values reported in the CheMixHub viscosity set.

Experiment: xn = mol fraction of the nth substance listed

CCCCCCCCCCN + C1CCCCC1
303.15 K, 101 kPa
Details	viscosity [mPa·s]
x2 = 0.2056	1.562
x2 = 0.3987	1.361
x2 = 0.5065	1.239
x2 = 0.5875	1.159
x2 = 0.7947	0.9708

CCCN(CCC)CCC + C1CCCCC1
viscosity [mPa·s], 101 kPa
Details	x1 = 0.01088	x1 = 0.02001	x1 = 0.0305	x1 = 0.04057	x1 = 0.05108	x1 = 0.05957	x1 = 0.06928	x1 = 0.07872	x1 = 0.08785
303.15 K	0.8118	0.8071	0.8005	0.7936	0.7874	0.7784	0.7721	0.766	0.7599
313.15 K	0.7082	0.6992	0.6899	0.6808	0.673	0.6664	0.6605	0.6541	0.6465

CCCN(CCC)CCC + C1COCCO1
Details	viscosity [mPa·s]
303.15 K, 101 kPa, x1 = 0.0198	1.045

Cc1ccc(C(C)C)c(O)c1 + CC12CCC(CC1)C(C)(C)O2
viscosity [mPa·s], 101.33 kPa
Details	x1 = 0.5865	x1 = 0.6068	x1 = 0.6272	x1 = 0.6462	x1 = 0.6661	x1 = 0.6858	x1 = 0.7057
293.15 K	43.71	45.56	46.15	46.86	46.28	45.95	44.22
298.15 K	29.92	30.8	31.35	31.41	31.27	30.92	29.82

CCN(CC)c1ccccc1 + CC(=O)O
viscosity [mPa·s], 101 kPa
Details	298.15 K	318.15 K
x2 = 0.0992	2.081	1.363
x2 = 0.1985	2.343	1.489
x2 = 0.2959	2.722	1.597
x2 = 0.3986	3.462	1.91
x2 = 0.5022	4.639	2.408
x2 = 0.598	6.4	3.1
x2 = 0.7002	9.548	4.198
x2 = 0.7469	10.94	4.721
x2 = 0.7982	12	5.159
x2 = 0.8467	10.95	4.965
x2 = 0.9027	6.538	3.527

CCOC(=O)CC(=O)OCC + CC(=O)c1ccccc1
viscosity [mPa·s], 101 kPa
Details	x1 = 0.0812	x1 = 0.1401	x1 = 0.2516	x1 = 0.3486	x1 = 0.4322	x1 = 0.5248	x1 = 0.6335	x1 = 0.7384	x1 = 0.8256	x1 = 0.9278
303.15 K	1.564	1.587	1.626	1.655	1.677	1.697	1.714	1.727	1.732	1.738
308.15 K	1.412	1.43	1.461	1.487	1.506	1.524	1.54	1.55	1.559	1.567
313.15 K	1.315	1.334	1.363	1.384	1.4	1.416	1.43	1.44	1.446	1.454

ClCCCCl + CC(C)CO
viscosity [mPa·s], 101 kPa
Details	x1 = 0.0989	x1 = 0.2041	x1 = 0.3021	x1 = 0.3988	x1 = 0.5019	x1 = 0.602	x1 = 0.704	x1 = 0.8027	x1 = 0.8982
298.15 K	2.523	1.948	1.604	1.373	1.194	1.078	1.001	0.9476	0.9412
313.15 K	1.637	1.327	1.127	1.001	0.8964	0.8306	0.789	0.7599	0.7565

Cc1ccc(C(C)C)c(O)c1 + CC(C)[C@@H]1CC[C@@H](C)C[C@H]1O
Details	viscosity [mPa·s]
293.15 K, 100 kPa, x1 = 0.333	68.78
293.15 K, 100 kPa, x1 = 0.5	54.01
298 K, 101 kPa, x2 = 0.2	25.3
298 K, 101 kPa, x2 = 0.25	26.8
298 K, 101 kPa, x2 = 0.333	32
298.15 K, 100 kPa, x1 = 0.333	43.86
298.15 K, 100 kPa, x1 = 0.5	35.41
303.15 K, 100 kPa, x1 = 0.333	29.46
303.15 K, 100 kPa, x1 = 0.5	24.33
308.15 K, 100 kPa, x1 = 0.333	20.66
308.15 K, 100 kPa, x1 = 0.5	17.41
313.15 K, 100 kPa, x1 = 0.333	15.01
313.15 K, 100 kPa, x1 = 0.5	12.89
318.15 K, 100 kPa, x1 = 0.333	11.25
318.15 K, 100 kPa, x1 = 0.5	9.84
323.15 K, 100 kPa, x1 = 0.333	8.69
323.15 K, 100 kPa, x1 = 0.5	7.72

CCCCCCCCCCCC(=O)OCC + CCC1CCCCC1
viscosity [mPa·s], 100 kPa
Details	x2 = 0.1001	x2 = 0.1999	x2 = 0.3	x2 = 0.3999	x2 = 0.5001	x2 = 0.5999	x2 = 0.7	x2 = 0.7999	x2 = 0.9
293.15 K	3.07	2.768	2.476	2.193	1.919	1.663	1.429	1.219	1.023
298.15 K	2.752	2.485	2.228	1.977	1.742	1.519	1.318	1.134	0.963
303.15 K	2.479	2.251	2.027	1.808	1.597	1.402	1.222	1.057	0.901
308.15 K	2.232	2.036	1.841	1.651	1.468	1.296	1.131	0.981	0.837
313.15 K	2.033	1.86	1.686	1.516	1.352	1.197	1.05	0.913	0.786
318.15 K	1.87	1.716	1.561	1.406	1.258	1.119	0.987	0.864	0.745
323.15 K	1.697	1.562	1.423	1.289	1.159	1.036	0.92	0.81	0.7

CCOC(=O)CC(=O)OCC + CCC(=O)CC
viscosity [mPa·s], 101 kPa
Details	x1 = 0.0736	x1 = 0.1356	x1 = 0.2458	x1 = 0.3326	x1 = 0.4124	x1 = 0.5158	x1 = 0.6256	x1 = 0.7456	x1 = 0.8626	x1 = 0.9415
303.15 K	0.488	0.535	0.633	0.725	0.814	0.94	1.094	1.273	1.475	1.627
308.15 K	0.45	0.493	0.58	0.658	0.742	0.859	0.999	1.162	1.341	1.478
313.15 K	0.437	0.477	0.56	0.633	0.708	0.812	0.938	1.089	1.25	1.375

CCCN(CCC)CCC + CCC(=O)O
viscosity [mPa·s], 101 kPa
Details	x2 = 0.1	x2 = 0.4	x2 = 0.5	x2 = 0.6	x2 = 0.7	x2 = 0.75	x2 = 0.775	x2 = 0.8	x2 = 0.9
293.15 K	0.734	4.43	5.62	5.97	13.95	20.55	23.47	23.75	8.57
298.15 K	0.664	3.85	5.12	5.22	11.2	16.25	18.67	18.96	7.5
303.15 K	0.589	3.5	4.35	4.5	9.2	13.02	15	15.59	6.47
308.15 K	0.54	3.1	3.75	3.8	7.7	10.85	12.22	12.77	5.81
313.15 K	0.51	2.8	3.62	3.35	6.52	9	10.32	10.76	5.04
318.15 K	0.499	2.45	3.03	3	5.57	7.62	8.68	8.96	4.4
323.15 K	0.464	2.22	2.75	2.67	4.82	6.46	7.44	7.72	4.05

CCN(CC)c1ccccc1 + CCC(=O)O
Details	viscosity [mPa·s]
323.15 K, 101 kPa, x2 = 0.5177	1.865

ClCCCCl + CCC(C)(C)O
viscosity [mPa·s], 101 kPa
Details	x1 = 0.101	x1 = 0.2021	x1 = 0.3082	x1 = 0.4082	x1 = 0.5066	x1 = 0.608	x1 = 0.7071	x1 = 0.808	x1 = 0.9003
298.15 K	2.779	1.877	1.393	1.18	1.061	0.9826	0.9381	0.9128	0.9114
313.15 K	1.508	1.164	0.9559	0.8566	0.7978	0.7579	0.7469	0.7328	0.7431

CCCN(CCC)CCC + CCC(C)O
303.15 K, 101 kPa
Details	viscosity [mPa·s]
x1 = 0.009049	2.448
x1 = 0.02003	2.423
x1 = 0.02982	2.4
x1 = 0.04	2.379
x1 = 0.05207	2.352
x1 = 0.06138	2.332
x1 = 0.06704	2.317
x1 = 0.07865	2.291
x1 = 0.09178	2.264

ClCCCCl + CCC(C)O
viscosity [mPa·s], 101 kPa
Details	x1 = 0.1002	x1 = 0.2005	x1 = 0.3002	x1 = 0.4005	x1 = 0.4986	x1 = 0.6027	x1 = 0.6951	x1 = 0.8051	x1 = 0.9113
298.15 K	2.23	1.683	1.346	1.134	1.031	0.9587	0.9141	0.894	0.8997
313.15 K	1.369	1.103	0.9402	0.8403	0.7841	0.7468	0.7254	0.7214	0.7371

Cc1ccc(C(C)C)c(O)c1 + CCCCCCCC(=O)O
100 kPa, x2 = 0.579
Details	viscosity [mPa·s]
293.15 K	9.71
298.15 K	8
303.15 K	6.68
308.15 K	5.65
313.15 K	4.83
318.15 K	4.17
323.15 K	3.64

Cc1ccc(C(C)C)c(O)c1 + CCCCCCCCCC(=O)O
100 kPa, x2 = 0.5
Details	viscosity [mPa·s]
293.15 K	15.28
298.15 K	12.16
303.15 K	9.86
308.15 K	8.12
313.15 K	6.78
318.15 K	5.74
323.15 K	4.91

Cc1ccc(C(C)C)c(O)c1 + CCCCCCCCCCCC(=O)O
100 kPa, x2 = 0.45
Details	viscosity [mPa·s]
303.15 K	12.43
308.15 K	10.12
313.15 K	8.37
318.15 K	7.01
323.15 K	5.95

Cc1ccc(C(C)C)c(O)c1 + CCCCCCCCCCCCCC(=O)O
100 kPa, x2 = 0.25
Details	viscosity [mPa·s]
313.15 K	8.69
318.15 K	7.16
323.15 K	5.98

Cc1ccc(C(C)C)c(O)c1 + CCCCCCCCCCCCCCCC(=O)O
100 kPa, x2 = 0.2
Details	viscosity [mPa·s]
313.15 K	9.21
318.15 K	7.54
323.15 K	6.29

Cc1ccc(C(C)C)c(O)c1 + CCCCCCCCCCCCCCCCCC(=O)O
100 kPa, x2 = 0.1
Details	viscosity [mPa·s]
318.15 K	6.88
323.15 K	5.68

CCN(CC)c1ccccc1 + CCCCCCCCO
viscosity [mPa·s], 100 kPa
Details	x1 = 0.1141	x1 = 0.2548	x1 = 0.3537	x1 = 0.4726	x1 = 0.5725	x1 = 0.6945	x1 = 0.7795	x1 = 0.8584	x1 = 0.9317
303.15 K	5.389	4.382	3.806	3.235	2.842	2.446	2.212	2.016	1.847
308.15 K	4.42	3.49	2.987	2.519	2.221	1.947	1.8	1.684	1.587
313.15 K	3.684	2.854	2.428	2.056	1.837	1.653	1.56	1.487	1.421
318.15 K	3.135	2.356	1.976	1.667	1.503	–	1.339	1.305	1.271

CCN(CC)c1ccccc1 + CCCCCCCO
viscosity [mPa·s], 100 kPa
Details	x1 = 0.1216	x1 = 0.2426	x1 = 0.3349	x1 = 0.4641	x1 = 0.5612	x1 = 0.6524	x1 = 0.7356	x1 = 0.8144	x1 = 0.9141
303.15 K	4.25	3.593	3.178	2.706	2.425	2.21	2.049	1.923	1.792
308.15 K	3.658	3.095	2.735	2.323	2.079	1.895	1.763	1.665	1.577
313.15 K	3.122	2.622	2.308	1.96	1.76	1.617	1.52	1.455	1.405
318.15 K	2.671	2.129	1.826	1.535	1.398	1.319	1.278	1.257	1.243
